In PubChem BioAssay AID1645865 (Buhrlage Lab, Dana-Farber Cancer Institute and Novartis …, 2021):
The source made the active and inactive calls.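 The calls were made as follows: active = maximal inhibition of the USP30 enzyme reaching 30% or more across the dose series; inactive = the rest.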

What follows are compounds tested against Ubiquitin carboxyl-terminal hydrolase 30 (Homo sapiens) (UniProt Q70CQ3) (assay: inhibitors of ubiquitin-specific protease 30 deubiquitylating enzyme, concentration dependence, in vitro biochemical, validation of primary hits (AID 1645865)). Settings: purified USP30, Ub-rhodamine cleavage, fluorescence, 2 h.
Chain of Ubiquitin carboxyl-terminal hydrolase 30 (Homo sapiens) (Q70CQ3 whole entry, looked up): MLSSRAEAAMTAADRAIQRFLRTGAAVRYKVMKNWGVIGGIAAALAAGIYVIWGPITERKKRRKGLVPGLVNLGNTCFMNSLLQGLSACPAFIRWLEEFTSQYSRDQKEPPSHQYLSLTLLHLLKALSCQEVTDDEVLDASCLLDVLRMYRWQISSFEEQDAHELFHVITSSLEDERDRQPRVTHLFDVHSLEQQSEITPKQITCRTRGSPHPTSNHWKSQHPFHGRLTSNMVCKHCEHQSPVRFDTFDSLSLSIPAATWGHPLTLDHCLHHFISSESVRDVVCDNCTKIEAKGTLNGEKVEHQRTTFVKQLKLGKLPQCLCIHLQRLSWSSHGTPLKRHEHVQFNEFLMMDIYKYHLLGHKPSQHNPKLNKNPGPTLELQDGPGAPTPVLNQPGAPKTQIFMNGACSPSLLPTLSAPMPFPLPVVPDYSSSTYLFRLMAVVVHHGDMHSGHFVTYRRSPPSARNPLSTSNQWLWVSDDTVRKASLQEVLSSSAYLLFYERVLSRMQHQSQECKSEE
For `CN1C(=O)[C@]23CC4=CC=C[C@H](O)[C@H]4N2C(=O)[C@@]1(CO)SS3`, the IC50 was 3.78 µM.
`CC1=C(C)C(N(c2ccccc2)c2ccccc2)N(CCC(C)C)C1=O` (configuration not stated) was tested, and the IC50 was 36.1 µM.
`Cc1sc(NC(=O)CN2CCc3ccccc3C2)nc1-c1ccc2c(c1)CCN2C(=O)C1CCCCC1` was tested, and the IC50 was > 50 µM (inactive).
Work on `O=C(Nc1ccccc1Sc1ncc(-c2ccc(Cl)cc2)cn1)c1ccco1` yielded an IC50 of 4.01 µM.
`COc1ccc(CNC(=O)CCc2nnc3n(Cc4ccccc4Cl)c(=O)c4ccccc4n23)cc1` gave an IC50 of 2.65 µM.
In the case of `COc1cccc2cc(C(=O)Nc3nc(-c4ccncc4)cs3)oc12`, the IC50 is reported as 0.161 µM.
`O=C(CC1C(=O)N(Cc2cccnc2)c2nc3ccccc3n21)Nc1cccc2ccccc12` (configuration not stated) was tested, and the IC50 was > 50 µM (inactive).
`Cc1ccc(NC(=O)c2ccc3c(c2)N(S(C)(=O)=O)CC3)cc1` showed an IC50 of 34 µM.
With `COc1cnc(CSc2ncccn2)cc1OCC(=O)Nc1cc(C)ccc1C` the IC50 was 41.3 µM.
In the case of `O=C1/C(=C/c2cn(-c3ccccc3)nc2-c2ccc3c(c2)OCCO3)Cc2ccccc21`, the IC50 is reported as > 50 µM (inactive).
For `Cn1c(=O)c(C(=O)CN2CCN(c3ccc(O)cc3)CC2)c(N)n(Cc2ccccc2)c1=O`, the IC50 was > 50 µM (inactive).
`O=C(CNc1nc(Nc2ccccc2F)nc(Nc2ccccc2F)n1)Nc1ccccc1` was tested, and the IC50 was 33.4 µM.
`CC1Oc2cc3c(-c4c(O)cc(O)c5c(O)c6c(cc45)OC(C)C(C)C6=O)c(O)cc(O)c3c(O)c2C(=O)C1C` (configuration not stated) showed an IC50 of 4.98 µM.
With `CN(CCCNC(=O)c1cccc2c1SCCC2=O)c1ccccc1` the IC50 was > 50 µM (inactive).
For `COc1ccc(OCCn2c(C3CC(=O)N(c4cccc(C)c4)C3)nc3ccccc32)cc1` (configuration not stated), the IC50 was 0.356 µM.
Work on `COc1ccc(NC(=O)c2nnc(C(=O)NCCN3CCCCCC3)s2)cc1` yielded an IC50 of 5.34 µM.
For `Cc1c(Cl)cccc1NC(=O)Cn1c(=O)c2ccccc2n2nncc12`, the IC50 was > 50 µM (inactive).
`Cc1ccc(-n2c(-c3ccccc3)cn3c4c(=O)[nH]c(=O)n(C)c4nc23)cc1C` was tested, and the IC50 was 0.286 µM.
Work on `CC1CC[C@@]2(NC1)O[C@H]1C[C@H]3[C@@H]4CC=C5C[C@@H](O)CC[C@]5(C)[C@H]4CC[C@]3(C)[C@H]1[C@@H]2C` (some centres not stated) yielded an IC50 of 13 µM.
With `COC(=O)c1c(C)[nH]c(C(=O)C(C)OC(=O)CCC2CCCC2)c1C` (configuration not stated) the IC50 was > 50 µM (inactive).
In the case of `Cc1ccc(C)c(-c2cc3c(=O)n(Cc4noc(CN5CCCCC5)n4)ccn3n2)c1`, the IC50 is reported as > 50 µM (inactive).
In the case of `CCCn1c(=O)c(-c2ccc(C(=O)NCc3ccc(OC)cc3)cc2)nc2cccnc21`, the IC50 is reported as 1.84 µM.
For `COc1cccc(NC(=O)Nc2ccc(NC(C)=O)cc2)c1`, the IC50 was 17.9 µM.
For `COCCn1c(=S)[nH]c2cc(C(=O)NCCSCc3ccccc3)ccc2c1=O`, the IC50 was > 5 µM (inactive).
`CN1c2ccccc2CN(CC(N)=O)CC1Cc1ccccc1` (configuration not stated) was tested, and the IC50 was > 50 µM (inactive).
With `O=C(COc1cccc2ccc(N3CCC(Cc4ccccc4)CC3)nc12)NCc1ccc(F)cc1` the IC50 was 23.1 µM.
In the case of `O=C(/C=C/c1ccc(F)cc1)N1CCc2ccccc2C1`, the IC50 is reported as > 50 µM (inactive).
For `Cc1sc2ccn(C)c(=O)c2c1C(=O)NC1CCCC1`, the IC50 was 25.9 µM.
In the case of `CCOC(=O)C1C(c2ccc(Br)cc2)C2(C(=O)c3ccccc3C2=O)C2C=Cc3ccccc3N12` (configuration not stated), the IC50 is reported as > 50 µM (inactive).
With `O=S(=O)(c1ccc2c(c1)OCCO2)N(Cc1ccccc1)Cc1nnc(-c2ccccc2)o1` the IC50 was > 50 µM (inactive).
`Cc1ccc(/C=C/C(=O)Nc2ccc3c(c2)OCCO3)cc1` was tested, and the IC50 was > 50 µM (inactive).
Work on `COc1ccc(NC(=O)Nc2cccc(-c3nnc(-c4ccccc4)o3)c2)cc1OC` yielded an IC50 of 8.55 µM.
In the case of `COc1ccccc1OCc1ccc(C(=O)Nc2ccc(F)cc2C)cc1`, the IC50 is reported as 28.3 µM.
`O=C(NCc1ccc(Cl)cc1)Nc1cccc2ccccc12` was tested, and the IC50 was 25.3 µM.
For `CCCC(=O)Nc1ccc(SCc2nnc(-c3ccccc3)o2)cc1`, the IC50 was > 50 µM (inactive).
`Cc1cccc(COc2ccc(C3SCC(=O)Nc4n[nH]c(C)c43)cc2)c1` (configuration not stated) gave an IC50 of 8.16 µM.
With `COc1ccc(NC(=O)c2nnn(-c3ccccc3C)c2C)cc1OC` the IC50 was > 50 µM (inactive).
`CCN1CCCC1CN(Cc1cc2cc(OC)ccc2[nH]c1=O)C(=O)NCc1ccccc1` (configuration not stated) was tested, and the IC50 was > 50 µM (inactive).
For `O=C(NCc1ccc2c(c1)OCO2)c1[nH]nc2c1COc1ccccc1-2`, the IC50 was 1.97 µM.
For `O=C(c1nnn(Cc2ccc(Cl)cc2)c1-n1cccc1)N1CCCC1`, the IC50 was > 50 µM (inactive).
In the case of `COc1cccc(N2CCN(C(=O)C3CCN(c4nc(NC(C)=O)ns4)CC3)CC2)c1`, the IC50 is reported as > 50 µM (inactive).
With `COc1c2c(cc3cc(O)c4c(=O)cc(C)oc4c13)CCC2=O` the IC50 was > 50 µM (inactive).
With `CCc1ccc(Nc2cc(C(=O)NCCCOC(C)C)c3ccccc3n2)cc1` the IC50 was 8.88 µM.
Work on `Cc1nc(-c2ccc(-n3cc(C(=O)Nc4cccc(F)c4)c(C)n3)cc2)no1` yielded an IC50 of 47.7 µM.
In the case of `COc1ccc(-c2[nH]c3ccccc3c2SCCNC(=O)c2ccc(S(=O)(=O)N3CCOCC3)cc2)cc1`, the IC50 is reported as 28.7 µM.
For `CCn1cc(-c2nc(-c3ccccn3)no2)c(=O)c2cc(F)ccc21`, the IC50 was 23.1 µM.
`Cc1ccc(C2=Nc3ccccc3N(CC(=O)Nc3cccc(C)c3C)C(=O)C2)cc1C` gave an IC50 of 4.93 µM.
In the case of `COc1ccc(/C=C/c2ccnc3nc(-n4cccc4)nn23)cc1`, the IC50 is reported as > 50 µM (inactive).
In the case of `Cc1ccc(C2c3cccn3CCN2C(=O)Nc2ccccc2)cc1` (configuration not stated), the IC50 is reported as > 50 µM (inactive).
For `COc1ccc(NC(=O)C2CCCN(S(=O)(=O)N3CCCCCC3)C2)cc1` (configuration not stated), the IC50 was 42.7 µM.
`O=C(Nc1cc(Cl)cc(Cl)c1)c1csnn1` was tested, and the IC50 was 16 µM.
`Nc1ccccc1SC(CC(=O)c1ccc(Cl)cc1)c1ccsc1` (configuration not stated) was tested, and the IC50 was > 50 µM (inactive).
With `Cc1c(-c2nc(-c3ccccc3Cl)no2)nnn1-c1cccc(F)c1` the IC50 was 4.07 µM.
`O=C(CSc1nnc(CNC(=O)c2ccccc2F)o1)Nc1ccc(OC(F)(F)F)cc1` gave an IC50 of 26.5 µM.
In the case of `CCc1ccc(-n2nc(C)c3c2NC(=O)CC3C(=O)c2ccc3c(c2)OCCO3)cc1` (configuration not stated), the IC50 is reported as 21 µM.
Work on `Cc1cnnn1-c1ccc(C(=O)Nc2cc(Cl)ccc2Cl)cc1` yielded an IC50 of 20.7 µM.
`O=C(O)Cc1ccc(Nc2nc3ccccc3n3nnnc23)cc1` was tested, and the IC50 was > 50 µM (inactive).
Compound `O=C(Nc1ccc(F)cc1F)NC1CCN(c2ccccc2)C1=O` (configuration not stated) has an IC50 of 25.8 µM.
For `O=C(Nc1cccc(F)c1)c1ncoc1-c1ccco1`, the IC50 was > 50 µM (inactive).
Work on `CCN(CCCNC(=O)c1ccc(Cn2c(=O)[nH]c3ccccc3c2=O)cc1)c1ccccc1` yielded an IC50 of 6.5 µM.
`COc1ccccc1-c1nc(-c2cn(-c3ccc(C)cc3)nn2)no1` gave an IC50 of 6.47 µM.
For `COc1ccc(NC(=O)CN2CCN(c3ccc(C(C)=O)cc3)CC2)cc1S(=O)(=O)N1CCCCC1`, the IC50 was 36.4 µM.
Work on `CN1C(=O)COc2ccc(NC(=O)c3cc(-c4ccccc4)on3)cc21` yielded an IC50 of 14.1 µM.
`Cc1nnc(C(=O)Nc2ccc(C(=O)NCc3ccccc3C)cc2)s1` showed an IC50 of 26.8 µM.
In the case of `O=c1cc(CNc2ccc(Br)cc2)nc2nc(-c3ccccc3)[nH]n12`, the IC50 is reported as > 50 µM (inactive).
In the case of `COc1ccc(S(=O)(=O)N2CCN3Cc4ccccc4N(C)CC3C2)cc1` (configuration not stated), the IC50 is reported as > 50 µM (inactive).
In the case of `O=C(Nc1cc(F)c2nc(N3CCCC3)ccc2c1)c1ccco1`, the IC50 is reported as > 50 µM (inactive).
`CCOc1ccc(NC(=O)Cn2cnc(S(=O)(=O)N3CCc4ccccc43)c2)cc1` was tested, and the IC50 was 27.4 µM.
With `Cc1ccc(O)c(-c2cc(C(=O)Nc3ccccc3Cl)[nH]n2)c1` the IC50 was 5.93 µM.
`CCn1c(SCc2nc(N)c3ccccc3n2)nc2ccccc21` was tested, and the IC50 was > 50 µM (inactive).
With `O=C(NCc1nc(-c2ccc3c(c2)[nH]c(=O)n3C2CCCC2)no1)c1ccccc1` the IC50 was > 50 µM (inactive).
With `O=S(=O)(Nc1ccc(O)cc1)c1ccc2oc3ccc(S(=O)(=O)Nc4ccc(O)cc4)cc3c2c1` the IC50 was 26.5 µM.
